From patent US11492335B2, “Aryl or heteroaryl triazolone derivatives or salts thereof, or pharmaceutical compositions comprising the same” (YUHAN CORPORATION, priority 2018, dated 2022) come the findings set out here.

Where a name gives a salt, the structure may show the parent alone. Read-outs that look alike come from different tables or passages of the source.

Assay type in all cases: biochemical
The target in experiment [1] is T1, recombinant human VAP-1 (Homo sapiens, UniProt Q16853).
T1 construct: purchased R&D systems
T1 sequence (Q16853 1-763): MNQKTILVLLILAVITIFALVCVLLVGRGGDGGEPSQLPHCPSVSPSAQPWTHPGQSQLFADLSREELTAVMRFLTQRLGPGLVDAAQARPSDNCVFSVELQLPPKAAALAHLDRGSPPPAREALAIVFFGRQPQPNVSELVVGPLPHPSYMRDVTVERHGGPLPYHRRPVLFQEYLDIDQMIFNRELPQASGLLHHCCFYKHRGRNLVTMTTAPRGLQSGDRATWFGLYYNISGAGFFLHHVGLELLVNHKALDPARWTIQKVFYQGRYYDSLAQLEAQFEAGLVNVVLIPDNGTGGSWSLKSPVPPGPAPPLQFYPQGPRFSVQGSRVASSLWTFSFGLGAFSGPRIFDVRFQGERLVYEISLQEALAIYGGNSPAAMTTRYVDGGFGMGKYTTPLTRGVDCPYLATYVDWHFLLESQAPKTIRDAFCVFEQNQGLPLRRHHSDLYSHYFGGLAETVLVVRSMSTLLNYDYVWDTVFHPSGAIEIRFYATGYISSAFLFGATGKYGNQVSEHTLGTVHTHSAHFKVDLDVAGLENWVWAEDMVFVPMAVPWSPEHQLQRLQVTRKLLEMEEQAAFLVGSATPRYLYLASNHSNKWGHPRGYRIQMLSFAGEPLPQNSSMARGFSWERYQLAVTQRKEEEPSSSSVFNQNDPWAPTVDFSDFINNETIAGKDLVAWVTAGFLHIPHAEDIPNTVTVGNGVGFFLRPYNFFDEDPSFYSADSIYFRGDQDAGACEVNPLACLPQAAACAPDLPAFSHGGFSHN
The experiment is described as follows: Activity on recombinant human VAP-1, Amplex Red HRP-coupled hydrogen peroxide assay, benzylamine substrate. Conditions: recombinant human VAP-1, benzylamine substrate, read-out: Inhibitory Activity (IC50, nM) human VAP-1. Put shortly: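 Enzyme in 50 mM sodium phosphate pH 7.4 preincubated with compound 30 min at 37 °C, then 1 mM benzylamine, 200 µM Amplex Red and 1 U/mL HRP added. H2O2-derived resorufin fluorescence (ex 544/em 590 nm) followed over 1–2 h; signal-rate decrease versus DMSO control, 8-point curve, four-parameter logistic IC50.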

Experiment [2] addresses T2, recombinant human MAO-A (monoamine oxidase-A) (Homo sapiens, UniProt P21397).
T2 construct: purchased Sigma-Aldrich
T2 sequence (P21397 1-527): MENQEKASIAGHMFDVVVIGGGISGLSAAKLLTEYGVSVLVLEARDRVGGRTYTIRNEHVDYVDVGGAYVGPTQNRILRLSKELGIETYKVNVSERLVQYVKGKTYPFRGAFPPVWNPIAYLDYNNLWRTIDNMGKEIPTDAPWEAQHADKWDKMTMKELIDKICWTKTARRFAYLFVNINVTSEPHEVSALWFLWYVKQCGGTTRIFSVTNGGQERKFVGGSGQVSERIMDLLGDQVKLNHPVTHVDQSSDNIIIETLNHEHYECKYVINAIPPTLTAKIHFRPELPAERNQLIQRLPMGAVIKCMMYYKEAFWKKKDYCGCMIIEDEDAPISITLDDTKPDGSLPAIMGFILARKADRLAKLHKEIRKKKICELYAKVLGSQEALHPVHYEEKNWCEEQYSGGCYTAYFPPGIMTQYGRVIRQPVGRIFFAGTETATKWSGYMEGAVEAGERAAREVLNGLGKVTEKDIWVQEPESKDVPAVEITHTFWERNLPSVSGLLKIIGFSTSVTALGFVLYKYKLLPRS
The experiment is described as follows: Activity on recombinant human MAO-A, Amplex Red method, 0.5 mM tyramine substrate. Conditions: read-out: Inhibitory Activity (IC50, nM) MAO-A. In a few lines: (§1)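 Enzyme preincubated with compound 30 min at 37 °C in 50 mM sodium phosphate pH 7.4, final DMSO below 1%. Substrate was 0.5 mM tyramine for MAO-A and 1 mM benzylamine for MAO-B, with 200 uM Amplex Red and 1 U/mL HRP. H2O2-coupled resorufin fluorescence (ex 544/em 590) followed over 1–2 h; 8-point 4-parameter IC50.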

Experiment [3] addresses T3, recombinant human MAO-B (monoamine oxidase-B) (Homo sapiens, UniProt P27338).
T3 construct: purchased Sigma-Aldrich
T3 sequence (P27338 1-520): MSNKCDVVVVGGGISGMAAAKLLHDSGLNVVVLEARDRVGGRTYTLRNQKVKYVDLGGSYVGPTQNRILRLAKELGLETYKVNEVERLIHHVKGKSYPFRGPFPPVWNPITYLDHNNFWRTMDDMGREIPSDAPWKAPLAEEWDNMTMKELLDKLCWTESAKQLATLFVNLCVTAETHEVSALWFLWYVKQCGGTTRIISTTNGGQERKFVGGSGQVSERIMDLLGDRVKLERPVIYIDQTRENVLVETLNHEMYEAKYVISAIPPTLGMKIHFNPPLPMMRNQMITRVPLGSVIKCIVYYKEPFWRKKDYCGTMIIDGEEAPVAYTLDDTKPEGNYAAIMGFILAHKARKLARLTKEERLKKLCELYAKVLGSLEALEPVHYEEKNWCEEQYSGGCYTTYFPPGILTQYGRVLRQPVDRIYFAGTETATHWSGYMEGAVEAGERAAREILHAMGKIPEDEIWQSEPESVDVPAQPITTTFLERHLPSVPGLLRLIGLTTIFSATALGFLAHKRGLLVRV
The experiment is described as follows: Activity on recombinant human MAO-B, Amplex Red method, 1 mM benzylamine substrate. The following applies: read-out: Inhibitory Activity (IC50, nM) MAO-B. In a few lines: as §1

Experiment [4] addresses T4, recombinant human DAO (diamine oxidase) (Homo sapiens, UniProt P19801).
T4 construct: purchased R&D systems
T4 sequence (P19801 20-751): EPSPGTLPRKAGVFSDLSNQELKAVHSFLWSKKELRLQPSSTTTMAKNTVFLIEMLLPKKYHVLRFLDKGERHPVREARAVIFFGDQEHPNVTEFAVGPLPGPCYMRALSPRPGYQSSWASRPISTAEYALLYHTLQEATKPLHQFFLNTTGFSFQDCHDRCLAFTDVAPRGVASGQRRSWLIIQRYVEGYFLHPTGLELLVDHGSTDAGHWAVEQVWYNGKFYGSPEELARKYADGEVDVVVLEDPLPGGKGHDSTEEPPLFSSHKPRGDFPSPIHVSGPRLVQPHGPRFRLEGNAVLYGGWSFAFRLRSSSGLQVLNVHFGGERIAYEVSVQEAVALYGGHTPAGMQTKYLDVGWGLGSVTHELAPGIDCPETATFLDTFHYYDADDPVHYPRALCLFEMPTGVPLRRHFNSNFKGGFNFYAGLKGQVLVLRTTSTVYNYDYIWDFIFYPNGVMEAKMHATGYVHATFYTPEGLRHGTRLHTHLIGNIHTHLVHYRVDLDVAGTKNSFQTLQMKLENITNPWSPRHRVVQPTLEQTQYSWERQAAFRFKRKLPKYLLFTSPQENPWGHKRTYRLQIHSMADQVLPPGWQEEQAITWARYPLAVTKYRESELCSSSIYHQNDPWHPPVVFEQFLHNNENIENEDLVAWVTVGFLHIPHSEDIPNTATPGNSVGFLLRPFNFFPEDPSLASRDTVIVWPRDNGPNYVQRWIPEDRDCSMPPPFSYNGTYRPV
The experiment is described as follows: Activity on recombinant human DAO, Amplex Red method, 1 mM putrescine substrate. The following applies: recombinant human DAO; for IC50: read-out: Inhibitory Activity (IC50, nM) DAO. Put shortly:
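Inhibition of recombinant human DAO (diamine oxidase, R&D systems) was assessed with the Amplex Red Hydrogen Peroxide Assay Kit. Hydrogen peroxide produced from 1 mM putrescine was detected through an HRP-coupled reaction that converts Amplex Red into fluorescent resorufin, read at 544 nm excitation and 590 nm emission. IC50 values came from four-parameter logistic fits in GraphPad Prism.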

Setting [5] is: 1 mM putrescine, * = between 10 and 100 nM, ** = between 300 and 1000 nM.

As for `CS(=O)(=O)c1ccc(-c2cccc(-c3cccc(-n4cnn(C/C(=C/F)CN)c4=O)c3)c2)cc1` [Example 67, 2-[(2E)-2-(aminomethyl)-3-fluoroprop-2-en-1-yl]-4-[4″-(methylsulfonyl)-1,1′:3′,1″-terphenyl-3-yl]-2,4-dihydro-3H-1,2,4-triazol-3-one], the IC50 (in general, the point on the concentration scale where inhibition reaches its midpoint) in experiment [1] (30 min preincubation at 37° C.) is 0.77 nM; in experiment [2] (0.5 mM tyramine) it was over 100000 nM; in experiment [3] (1 mM benzylamine), over 10000 nM; in experiment [4] (setting [5]) it was 11 nM.

For `Cc1c(-c2ccc3sc(N)nc3c2)cccc1-n1cnn(C/C(=C/F)CN)c1=O` [Example 114, 4-[3-(2-amino-1,3-benzothiazol-5-yl)-2-methylphenyl]-2-[(2E)-2-(aminomethyl)-3-fluoroprop-2-en-1-yl]-2,4-dihydro-3H-1,2,4-triazol-3-one], the concentration for half-maximal inhibition (IC50) in experiment [1] (30 min preincubation at 37° C.) is 3.1 nM; in experiment [2] (0.5 mM tyramine), over 100000 nM; in experiment [3] (1 mM benzylamine), over 10000 nM. Moreover, the “Inhibitory Activity (IC50, nM) DAO” value in experiment [4] (setting [5]) is given as “no inhibitory”.

With `NC/C(=C\F)Cn1ncn(-c2cccc(-c3ccc(-c4cnon4)cc3)n2)c1=O` [Example 177, 2-[(2E)-2-(aminomethyl)-3-fluoroprop-2-en-1-yl]-4-{6-[4-(1,2,5-oxadiazol-3-yl)phenyl]pyridin-2-yl}-2,4-dihydro-3H-1,2,4-triazol-3-one hydrochloride], the IC50 in experiment [1] is 0.5 nM; in experiment [2] (0.5 mM tyramine substrate), over 100000 nM; in experiment [3] (1 mM benzylamine substrate), 1900 nM; in experiment [4] (1 mM putrescine substrate) it was 2.6 nM.

Regarding `CC(=O)Nc1ccc(-c2cc(C)c(-n3cnn(C/C(=C/F)CN)c3=O)cn2)cc1` [Example 120, N-[4-(5-{1-[(2E)-2-(aminomethyl)-3-fluoroprop-2-en-1-yl]-5-oxo-1,5-dihydro-4H-1,2,4-triazol-4-yl}-4-methylpyridin-2-yl)phenyl]acetamide], the IC50 in experiment [1] (30 min preincubation at 37° C.) is 1.4 nM; in experiment [2] (0.5 mM tyramine), over 100000 nM; in experiment [3] (1 mM benzylamine), over 10000 nM; in experiment [4] (setting [5]), 110 nM.

As to `Cc1cc(-c2cccc(-n3cnn(C/C(=C/F)CN)c3=O)n2)cc2c1NC(=O)CC2` [Example 197, 6-(6-{1-[(2E)-2-(aminomethyl)-3-fluoroprop-2-en-1-yl]-5-oxo-1,5-dihydro-4H-1,2,4-triazol-4-yl}pyridin-2-yl)-8-methyl-3,4-dihydroquinolin-2(1H)-one hydrochloride], the IC50 in experiment [1] worked out at 0.08 nM; in experiment [2] (0.5 mM tyramine substrate), 81000 nM; in experiment [3] (1 mM benzylamine substrate) it was 250 nM; in experiment [4] (1 mM putrescine substrate), 2.6 nM.

As to `NC/C(=C\F)Cn1ncn(-c2cccc(-c3ccc(OC(F)(F)F)cc3)c2)c1=O` [Example 50, 2-[(2E)-2-(aminomethyl)-3-fluoroprop-2-en-1-yl]-4-[4′-(trifluoromethoxy)biphenyl-3-yl]-2,4-dihydro-3H-1,2,4-triazol-3-one hydrochloride], the half-inhibitory concentration (IC50) is 1 nM in experiment [1] (30 min preincubation at 37° C.), over 10000 nM in experiment [2] (0.5 mM tyramine), 510 nM in experiment [3] (1 mM benzylamine) and under 100 nM in experiment [4] (setting [5]).

Consider `CS(=O)(=O)c1ccc(-c2cnc(-n3cnn(C/C(=C\F)CN)c3=O)s2)cc1` [Example 226, 2-[(2Z)-2-(aminomethyl)-3-fluoroprop-2-en-1-yl]-4-{5-[4-(methylsulfonyl)phenyl]-1,3-thiazol-2-yl}-2,4-dihydro-3H-1,2,4-triazol-3-one hydrochloride], for which the IC50 in experiment [1] was 1.4 nM; in experiment [2] (0.5 mM tyramine substrate), over 100000 nM; in experiment [3] (1 mM benzylamine substrate), 11.4 nM; in experiment [4] (1 mM putrescine substrate), under 100 nM.

In the case of `CN1CNc2cc(/C=C/c3cccc(-n4cnn(C/C(=C/F)CN)c4=O)n3)cnc21` [Example 240, 2-[(E)-2-(aminomethyl)-3-fluoro-allyl]-4-[6-[(E)-2-(3-methyl-1,2-dihydroimidazo[4,5-b]pyridin-6-yl)vinyl]-2-pyridyl]-1,2,4-triazol-3-one hydrochloride], the IC50 in experiment [1] is 1 nM; in experiment [2] (0.5 mM tyramine substrate) it was over 100000 nM; in experiment [3] (1 mM benzylamine substrate), over 10000 nM; in experiment [4] (1 mM putrescine substrate), 4 nM.

In the case of `Cc1cc(-c2ccc(-c3noc(C(C)C)n3)cc2)cnc1-n1cnn(C/C(=C/F)CN)c1=O` [Example 142, 2-[(2E)-2-(aminomethyl)-3-fluoroprop-2-en-1-yl]-4-(3-methyl-5-{4-[5-(propan-2-yl)-1,2,4-oxadiazol-3-yl]phenyl}pyridin-2-yl)-2,4-dihydro-3H-1,2,4-triazol-3-one hydrochloride], the IC50 in experiment [1] (30 min preincubation at 37° C.) is 0.63 nM; in experiment [2] (0.5 mM tyramine) it was over 100000 nM; in experiment [3] (1 mM benzylamine), 4720 nM; in experiment [4] (setting [5]), 57 nM.
